Reference: patent US20240158438A1, “POLYPEPTIDE COMPOUND AND APPLICATION THEREOF” (CHENGDU SINTANOVO BIOTECHNOLOGY CO., LTD., priority 2021, published 2024)
Starred links: 1 amine or outer side, 2 acyl side, 3 side chain; linkers in the order of their positions; H or OH if unused. Non-standard residues stand in square brackets, D forms with d. Residues, ends and D or L forms follow the SMILES beside them. *: point of attachment. X6 = O=C(C1[C@H]2CC[C@H](C2)N1[*:1])[*:2]; X5 = NC12CC3CC(C1)CC(CC(=O)*)(C3)C2; dBta = N[C@H](Cc1csc2ccccc12)C(=O)O; dCit = NC(=O)NCCC[C@@H](N)C(=O)O; dTle = CC(C)(C)[C@@H](N)C(=O)O; Tle = CC(C)(C)[C@H](N)C(=O)O; dNle = CCCC[C@@H](N)C(=O)O; Nle = CCCC[C@H](N)C(=O)O; Api = NC1(C(=O)O)CCNCC1; X4 = O=C([C@H]1CNCCO1)*

The compounds below were run against GHSR-1a (Homo sapiens (Human), UniProt Q92847) (assay: Agonistic activity for GHSR-1a, FLIPR calcium assay). Settings: agonist activity assay, Flp In-CHO-GHSR Stable Pool cells, FLIPR calcium 6 kit; read-out: The activity (IC50) of polypeptide compounds for GHSR-1a.
Format: cell-based
Description: The use of recombinant expression of GHSR provides several advantages; for example, the receptor can be expressed in a determined cell system, so that it is easier to distinguish between the reactions of the compounds with GHSR and the reactions with other receptors. For example, cell lines such as HEK293, COS7 and CHO that […] can be used to express GHSR, and the same cell lines without expression vectors are used as controls.
The activity of GHSR-1a can be measured using different techniques, for example, by detecting the change in the intracellular conformation of GHSR, the change in G-protein coupling activity, and/or the change in intracellular messengers. Techniques such as measuring intracellular Ca^2+ are preferably used to measure the activity of GHSR-1a. Examples of techniques known in the art that can be used to measure Ca^2+ include the use of FLIPR® calcium ion assay kits, among others. The FLIPR® calcium ion assay kits use a calcium ion sensitive indicator and a masking dye to ensure that a researcher carries out high-sensitivity fluorescent screening for G protein-coupled receptors, ion channels and other calcium ion sensitive targets. This experiment used FLIPR calcium 6 assay kits and FLIPR calcium 6-QF assay kits.
• a) Cell line: Flp In-CHO-GHSR Stable Pool; • b) Complete medium: F12K+10% fetal bovine serum+1×penicillin-streptomycin (PS)+600 μg/mL hygromycin B; • c) Cell seeding medium: F12K+10% fetal bovine serum. • d) Assay buffer: 1× HBSS+20 mM HEPES. • e) […] component A: Assay buffer and component A were left at room temperature (RT), 10 mL of buffer was added to component A, and the mixture was vortexed for 1-2 min and stored at −20° C.
• a) Compound stock solutions: the powders from in-house synthesis were made into 10 mM stock solutions in DMSO according to the standard protocol. • b) Compound storage: all compounds in DMSO were stored in room temperature desiccators for short-term storage (at most 4 months). The remaining compounds were left at −20 ° C. for long-term storage.
• a) Flp In-CHO-GHSR Stable Pool cells were cultured in complete medium. • b) The cells were placed in […] cell seeding medium in a 384-well cell culture plate (Corning, 3764) at 7k cells/well and cultured overnight at 37° C. with 5% CO2. • c) 20× component A was thawed at room temperature, diluted with assay buffer to 2×, and left at RT. • d) The Petri dish was taken out of the incubator and equilibrated at room temperature for 10 min. The medium was changed to […]. After the final wash, 20 μL of buffer was kept in each well, 20 μL of 2× component A was then added to each well, and the plate was incubated at 37° C. for 3-5 s. • e) 10 μL of 5× compound was added to the 384-well cell culture plate, and data collection was immediately performed using FLIPR Tetra.
• 1) Z′ factor=1−3×(SDMax+SDMin)/(MeanMax−MeanMin); • 2) CVMax=(SDMax/MeanMax)×100%; • 3) CVMin=(SDMin/MeanMin)×100%; • 4) S/B=Singal/Background; • 5) Calculation formula for IC50: • Y=Bottom+(Top−Bottom)/(1+10^((LogIC50−X)×HillSlope)) • X: log value of compound concentration; Y: Activation % or Inhibition %

Sequence of GHSR-1a (Q92847 whole entry): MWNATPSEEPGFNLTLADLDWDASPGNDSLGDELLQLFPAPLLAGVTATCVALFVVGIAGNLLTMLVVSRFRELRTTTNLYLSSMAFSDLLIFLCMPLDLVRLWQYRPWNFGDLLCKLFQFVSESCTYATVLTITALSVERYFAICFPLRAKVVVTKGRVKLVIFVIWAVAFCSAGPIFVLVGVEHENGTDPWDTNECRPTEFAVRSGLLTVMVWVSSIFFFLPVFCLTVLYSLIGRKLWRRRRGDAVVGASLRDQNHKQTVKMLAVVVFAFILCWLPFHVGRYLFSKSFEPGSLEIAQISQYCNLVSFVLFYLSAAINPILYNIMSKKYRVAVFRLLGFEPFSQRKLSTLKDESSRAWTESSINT

| IC50 | SMILES |
| --- | --- |
| 0.0208 µM | NCCCC[C@@H](NC(=O)[C@H](Cc1ccccc1)NC(=O)[C@@H](Cc1c[nH]c2ccccc12)NC(=O)[C@@H](Cc1csc2ccccc12)NC(=O)[C@H](N)CCCNC(N)=O)C(N)=O [Compound 31] (H-[dCit][dBta][dW]F[dK]-NH2) |
| 0.0784 µM | NCCCC[C@@H](N)C(=O)N[C@H](Cc1csc2ccccc12)C(=O)N[C@H](Cc1c[nH]c2ccccc12)C(=O)N[C@@H](Cc1ccccc1)C(=O)N[C@H](CCCCN)C(N)=O [Compound 34] (H-[dK][dBta][dW]F[dK]-NH2) |
| 0.102 µM | NCCCC[C@H](N)C(=O)N[C@H](Cc1csc2ccccc12)C(=O)N[C@H](Cc1c[nH]c2ccccc12)C(=O)N[C@@H](Cc1ccccc1)C(=O)N[C@H](CCCCN)C(N)=O [Compound 35] (H-K[dBta][dW]F[dK]-NH2) |
| 0.272 µM | N=C(N)NCCC[C@@H](N)C(=O)N[C@H](Cc1csc2ccccc12)C(=O)N[C@H](Cc1c[nH]c2ccccc12)C(=O)N[C@@H](Cc1ccccc1)C(=O)N[C@H](CCCCN)C(N)=O [Compound 39] (H-[dR][dBta][dW]F[dK]-NH2) |
| 0.0314 µM | NCCCC[C@@H](NC(=O)[C@H](Cc1ccccc1)NC(=O)[C@@H](Cc1c[nH]c2ccccc12)NC(=O)[C@@H](Cc1csc2ccccc12)NC(=O)CN)C(N)=O [Compound 41] (H-G[dBta][dW]F[dK]-NH2) |
| 0.0401 µM | C[C@@H](N)C(=O)N[C@H](Cc1csc2ccccc12)C(=O)N[C@H](Cc1c[nH]c2ccccc12)C(=O)N[C@@H](Cc1ccccc1)C(=O)N[C@H](CCCCN)C(N)=O [Compound 42] (H-[dA][dBta][dW]F[dK]-NH2) |
| 0.0223 µM | CC(C)[C@@H](N)C(=O)N[C@H](Cc1csc2ccccc12)C(=O)N[C@H](Cc1c[nH]c2ccccc12)C(=O)N[C@@H](Cc1ccccc1)C(=O)N[C@H](CCCCN)C(N)=O [Compound 43] (H-[dV][dBta][dW]F[dK]-NH2) |
| 0.0135 µM | CC(C)C[C@@H](N)C(=O)N[C@H](Cc1csc2ccccc12)C(=O)N[C@H](Cc1c[nH]c2ccccc12)C(=O)N[C@@H](Cc1ccccc1)C(=O)N[C@H](CCCCN)C(N)=O [Compound 44] (H-[dL][dBta][dW]F[dK]-NH2) |
| 0.0594 µM | CCCC[C@@H](N)C(=O)N[C@H](Cc1csc2ccccc12)C(=O)N[C@H](Cc1c[nH]c2ccccc12)C(=O)N[C@@H](Cc1ccccc1)C(=O)N[C@H](CCCCN)C(N)=O [Compound 49] (H-[dNle][dBta][dW]F[dK]-NH2) |
| 0.0672 µM | CCCC[C@H](N)C(=O)N[C@H](Cc1csc2ccccc12)C(=O)N[C@H](Cc1c[nH]c2ccccc12)C(=O)N[C@@H](Cc1ccccc1)C(=O)N[C@H](CCCCN)C(N)=O [Compound 50] (H-[Nle][dBta][dW]F[dK]-NH2) |

Second part, the compound before the results:

| SMILES | IC50 |
| --- | --- |
| NC(=O)NCCC[C@@H](N)C(=O)N[C@H](Cc1csc2ccccc12)C(=O)N[C@H](Cc1c[nH]c2ccccc12)C(=O)N[C@@H](Cc1ccccc1)C(=O)NC1(C(N)=O)CCNCC1 [Compound 1] (H-[dCit][dBta][dW]F[Api]-NH2) | 0.15 µM |
| NCCCC[C@@H](N)C(=O)N[C@H](Cc1csc2ccccc12)C(=O)N[C@H](Cc1c[nH]c2ccccc12)C(=O)N[C@@H](Cc1ccccc1)C(=O)NC1(C(N)=O)CCNCC1 [Compound 4] (H-[dK][dBta][dW]F[Api]-NH2) | 1.12 µM |
| NCCCC[C@H](N)C(=O)N[C@H](Cc1csc2ccccc12)C(=O)N[C@H](Cc1c[nH]c2ccccc12)C(=O)N[C@@H](Cc1ccccc1)C(=O)NC1(C(N)=O)CCNCC1 [Compound 5] (H-K[dBta][dW]F[Api]-NH2) | > 1 µM |
| CC(=O)N[C@H](CCCNC(N)=O)C(=O)N[C@H](Cc1csc2ccccc12)C(=O)N[C@H](Cc1c[nH]c2ccccc12)C(=O)N[C@@H](Cc1ccccc1)C(=O)NC1(C(N)=O)CCNCC1 [Compound 6] (Ac-[dCit][dBta][dW]F[Api]-NH2) | > 1 µM |
| CC(=O)N[C@H](CCCCN)C(=O)N[C@H](Cc1csc2ccccc12)C(=O)N[C@H](Cc1c[nH]c2ccccc12)C(=O)N[C@@H](Cc1ccccc1)C(=O)NC1(C(N)=O)CCNCC1 [Compound 7] (Ac-[dK][dBta][dW]F[Api]-NH2) | 0.935 µM |
| CC(=O)N[C@@H](CCCCN)C(=O)N[C@H](Cc1csc2ccccc12)C(=O)N[C@H](Cc1c[nH]c2ccccc12)C(=O)N[C@@H](Cc1ccccc1)C(=O)NC1(C(N)=O)CCNCC1 [Compound 8] (Ac-K[dBta][dW]F[Api]-NH2) | > 1 µM |
| N=C(N)NCCC[C@@H](N)C(=O)N[C@H](Cc1csc2ccccc12)C(=O)N[C@H](Cc1c[nH]c2ccccc12)C(=O)N[C@@H](Cc1ccccc1)C(=O)NC1(C(N)=O)CCNCC1 [Compound 9] (H-[dR][dBta][dW]F[Api]-NH2) | 0.101 µM |
| CC(=O)NCCCC[C@@H](N)C(=O)N[C@H](Cc1csc2ccccc12)C(=O)N[C@H](Cc1c[nH]c2ccccc12)C(=O)N[C@@H](Cc1ccccc1)C(=O)NC1(C(N)=O)CCNCC1 [Compound 10] (H-[dK](Ac)[dBta][dW]F[Api]-NH2) | 0.223 µM |
| CC(C)(C)[C@@H](N)C(=O)N[C@H](Cc1csc2ccccc12)C(=O)N[C@H](Cc1c[nH]c2ccccc12)C(=O)N[C@@H](Cc1ccccc1)C(=O)NC1(C(N)=O)CCNCC1 [Compound 17] (H-[dTle][dBta][dW]F[Api]-NH2) | 0.0311 µM |
| CC(C)(C)[C@H](N)C(=O)N[C@H](Cc1csc2ccccc12)C(=O)N[C@H](Cc1c[nH]c2ccccc12)C(=O)N[C@@H](Cc1ccccc1)C(=O)NC1(C(N)=O)CCNCC1 [Compound 18] (H-[Tle][dBta][dW]F[Api]-NH2) | 0.0235 µM |
| CCCC[C@@H](N)C(=O)N[C@H](Cc1csc2ccccc12)C(=O)N[C@H](Cc1c[nH]c2ccccc12)C(=O)N[C@@H](Cc1ccccc1)C(=O)NC1(C(N)=O)CCNCC1 [Compound 19] (H-[dNle][dBta][dW]F[Api]-NH2) | 0.0426 µM |
| CCCC[C@H](N)C(=O)N[C@H](Cc1csc2ccccc12)C(=O)N[C@H](Cc1c[nH]c2ccccc12)C(=O)N[C@@H](Cc1ccccc1)C(=O)NC1(C(N)=O)CCNCC1 [Compound 20] (H-[Nle][dBta][dW]F[Api]-NH2) | 0.0574 µM |
| NC(=O)C1(NC(=O)[C@H](Cc2ccccc2)NC(=O)[C@@H](Cc2c[nH]c3ccccc23)NC(=O)[C@@H](Cc2csc3ccccc23)NC(=O)[C@H]2CNCCO2)CCNCC1 [Compound 27] (X4-[dBta][dW]F[Api]-NH2) | 0.0328 µM |
| NC(=O)C1(NC(=O)[C@H](Cc2ccccc2)NC(=O)[C@@H](Cc2c[nH]c3ccccc23)NC(=O)[C@@H](Cc2csc3ccccc23)NC(=O)CC23CC4CC(CC(N)(C4)C2)C3)CCNCC1 [Compound 28] (X5-[dBta][dW]F[Api]-NH2) | 0.0541 µM |
| NC(=O)C1(NC(=O)[C@H](Cc2ccccc2)NC(=O)[C@@H](Cc2c[nH]c3ccccc23)NC(=O)[C@@H](Cc2csc3ccccc23)NC(=O)C2N[C@@H]3CC[C@H]2C3)CCNCC1 (some centres unmarked) [Compound 29] (H-[X6][dBta][dW]F[Api]-NH2) | 0.0133 µM |
| CC(=O)N[C@H](CCCNC(N)=O)C(=O)N[C@H](Cc1csc2ccccc12)C(=O)N[C@H](Cc1c[nH]c2ccccc12)C(=O)N[C@@H](Cc1ccccc1)C(=O)N[C@H](CCCCN)C(N)=O [Compound 36] (Ac-[dCit][dBta][dW]F[dK]-NH2) | 0.122 µM |
| CC(=O)N[C@H](CCCCN)C(=O)N[C@H](Cc1csc2ccccc12)C(=O)N[C@H](Cc1c[nH]c2ccccc12)C(=O)N[C@@H](Cc1ccccc1)C(=O)N[C@H](CCCCN)C(N)=O [Compound 37] (Ac-[dK][dBta][dW]F[dK]-NH2) | 0.291 µM |
| CC(=O)N[C@@H](CCCCN)C(=O)N[C@H](Cc1csc2ccccc12)C(=O)N[C@H](Cc1c[nH]c2ccccc12)C(=O)N[C@@H](Cc1ccccc1)C(=O)N[C@H](CCCCN)C(N)=O [Compound 38] (Ac-K[dBta][dW]F[dK]-NH2) | 0.401 µM |
| CC(=O)NCCCC[C@@H](N)C(=O)N[C@H](Cc1csc2ccccc12)C(=O)N[C@H](Cc1c[nH]c2ccccc12)C(=O)N[C@@H](Cc1ccccc1)C(=O)N[C@H](CCCCN)C(N)=O [Compound 40] (H-[dK](Ac)[dBta][dW]F[dK]-NH2) | 0.51 µM |
